# Laboratory results published in PubChem BioAssay AID179 (DTP/NCI, 2004).
# Active and inactive are the calls of the source.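 The calls were made as follows: active = compounds giving half or more protection of infected cells from virus-caused growth loss, again on retest; inactive = the rest.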
# System: CEM cells HIV-1 protection, formazan growth assay
# Experiment: NCI AIDS Antiviral Assay
# Conditions: for IC50: measured here: growth of uninfected CEM cells
# Summary of the method: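 Soluble formazan readout of cell growth; CEM cells ± HIV-1; 5 drug concs. ≥50% protection → retest; ≥50% again = moderately active; reproducible 100% = confirmed active.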
SMILES,EC50,IC50,outcome
O=c1oc2c3ccccc3c3ccccc3c2c2oc3c4ccccc4c4ccccc4c3c12,0.0209 µM,0.955 µM,
CN(/N=C/C=N/N(C)C1=NCCCCN1)C1=NCCCCN1,> 200 µM,> 200 µM,
Cc1cc(N(CCC#N)CCC#N)ccc1/C=C(\NC(=O)/C=C/c1ccccc1)NC(=O)Nc1ccc(Cl)cc1,,,inactive
CN(C)c1n2c3ccc([N+](=O)[O-])cc3n3c(N(C)C)[n+]4ccccc4c3c2c2cccc[n+]12,> 200 µM,89.1 µM,
CCCCCCC(N)(CCCCCC)C(=O)Nn1c(C)ccc1C,> 200 µM,16.2 µM,
CCN1CCC(O)(/C=C/c2ccc(C)cc2)C(C(=O)/C=C/c2ccc(C)cc2)C1 (centres undefined),> 117 µM,2.57 µM,
Cc1ccc(SCC(CF)OCn2cc(F)c(=O)[nH]c2=O)cc1 (centres undefined),> 200 µM,123 µM,
COC1/C=C/OC2(C)Oc3c(C)c(O)c4c(O)c(cc(OCC(=O)N(C)CC(=O)OC(C)(C)C)c4c3C2=O)NC(=O)/C(C)=C/C=C/C(C)C(O)C(C)C(O)C(C)C(OC(C)=O)C1C (centres undefined),> 200 µM,28.2 µM,
CC(=O)Nc1ccc([As](=O)(O)O)cc1C(=O)O,> 200 µM,> 200 µM,
COc1ccc(C(c2c(O)c3ccccc3n(-c3ccccc3)c2=O)c2c(O)c3ccccc3n(-c3ccccc3)c2=O)cc1,> 8.71 µM,> 8.71 µM,
CC12c3c4cc(Br)cc3Oc3cc(Br)cc(c31)Oc1cc(Br)cc(c12)O4,> 200 µM,33.1 µM,
CCCCC1(CCO)C(=O)NC(=S)NC1=O,> 200 µM,> 200 µM,
COC(=O)CN1Cc2cc(C)cc(c2O)CN(CC(=O)OC)Cc2cc(C)cc(c2O)CN(CC(=O)OC)Cc2cc(C)cc(c2O)C1,> 200 µM,19.5 µM,
O=C1c2c(O)cccc2C(C(=O)CCCCC(=O)C2c3cccc(O)c3C(=O)c3c(O)cccc32)c2cccc(O)c21,> 6.76 µM,> 6.76 µM,
CCN(CC)C(=O)Cn1c(-c2ccccc2)cc2ccccc21,> 200 µM,40.7 µM,
CCCCN(CCCC)C(=S)SSC(=S)N(CCCC)CCCC,> 200 µM,5.25 µM,
O=C1NN=C(c2ccccc2)SC1c1ccccc1 (centres undefined),> 200 µM,> 200 µM,

SMILES,EC50,IC50,outcome
COc1ccc(/C=C(\C#N)c2ccc([N+](=O)[O-])cc2)cc1OC,102 µM,759 µM,
CO[C@@]12[C@@H]3N[C@@H]3CN1C1=C(C(=O)C(N(C)c3ccc(O)cc3)=C(C)C1=O)[C@@H]2COC(N)=O,> 200 µM,1.35 µM,
O=S(Cc1ccccc1)/C(=C/n1c(=S)[nH]c2ccccc21)c1ccccc1 (centres undefined),> 200 µM,> 200 µM,
Cc1ccc(-c2c(C#N)c(-c3ccccc3)n(NS(=O)(=O)c3ccc(C)cc3)c(=O)c2C#N)cc1,> 200 µM,67.6 µM,
CC1CN(C(=O)CN2CCC(CCCCN(C)C)CC2)c2ccccc2NC1=O (centres undefined),> 251 µM,> 251 µM,
Cc1cc(N(CCC#N)CCC#N)ccc1/C=C1/N=C(c2ccccc2)N(N)C1=O,> 63.1 µM,42.7 µM,
O=C1c2ccccc2C(=O)c2c(NCCOCCO)ccc(NCCOCCO)c21,> 200 µM,107 µM,
CCOC(=O)/C=C/c1ccccn1,> 1410 µM,646 µM,
COc1ccc2c(c1OC)[C@]13CCCC[C@@H]1[C@H](C2)N(C)CC3,,,inactive
CC(=O)NNc1nc(C)c(C(=O)/C=C/c2ccc(NC(C)=O)cc2)s1,> 28.2 µM,> 28.2 µM,
CC(=O)Oc1cc2c(n(C)c1=O)-c1ccccc1C2,> 200 µM,6.61 µM,
Cn1c(=O)c2nc(-c3ccccc3)oc2n(C)c1=O,,,inactive
CCOC(=O)C1OC12CCC(C(C)(C)C)CC2 (centres undefined),> 200 µM,191 µM,
COc1cc(C2=C(C)[C@@H]3CN(CC=C3c3ccc(Cl)cc3)C2)c(S(=O)(=O)O)cc1OC,,,inactive
CN(C)C(=O)c1nnsc1NN=O,> 200 µM,> 200 µM,
O=C1C[N+]2(Cc3ccccc3)CCC1CC2,> 851 µM,> 851 µM,
COc1cc2cc(OC(C)=O)c3cc4c(cc3c2c(OC)c1OC)OCO4,> 676 µM,> 676 µM,
